Data published in patent US12448369B2 (Edgewise Therapeutics, Inc., priority 2023, dated 2025).

Key:
[1] = target: T1, Porcine ventricle myofibrils (ventricular myosin ATPase) (Sus scrofa, UniProt P79293); assay: Myofibril ATPase assay, porcine ventricle myofibrils; type: biochemical, porcine (Yucatan minipigs); conditions: porcine ventricle myofibrils
T1 construct: Myofibrils from porcine cardiac muscle was isolated from the left ventricle of Yucatan minipigs; tissue Exemplar Genetics; host or cells: left ventricle of Yucatan minipigs, myofibrils prepared in house
Outline: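 In a coupled enzyme format, ADP from myofibril ATPase drives NADH oxidation, monitored kinetically at 340 nm for 75 min using minipig ventricle myofibrils. Effective concentrations giving 25% loss or gain of activity relative to vehicle were calculated from 4-parameter fits.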

[2] = system: Rabbit Psoas myofibrils (skeletal myosin ATPase); assay: Myofibril ATPase assay, rabbit psoas (skeletal) myofibrils; type: biochemical; conditions: rabbit psoas myofibrils
Outline: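 Rabbit psoas skeletal myofibrils in PIPES/CaCl2/EGTA pCa buffer, pH 7.0. ATPase rate followed by PK-LDH-coupled NADH loss at 340 nm, read every 1.5–2 min for 75 min. Slopes normalized to vehicle (100%) and fitted to a 4-parameter logistic; values are Y75 (25% inhibition) or Y125 (25% activation) concentrations.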

[3] = system: Porcine atria myofibrils (atrial myosin ATPase); assay: Myofibril ATPase assay, porcine atria myofibrils; type: biochemical; conditions: porcine atria myofibrils
Outline: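 Coupled PK-LDH reaction links ADP from myosin ATPase to NADH loss, read at 340 nm every 1.5-2 min for 75 min. Slopes (mAU/min) normalized to vehicle-only wells (100%) and fit to a 4-parameter logistic; Y75 is the concentration cutting activity by 25%, Y125 is reported for activators.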

[4] = Y75 value (75% activity relative to no compound)
[5] = ‡ Y125 value, not a Y75 value (125% activity relative to no compound)

T1 sequence (P79293 whole entry): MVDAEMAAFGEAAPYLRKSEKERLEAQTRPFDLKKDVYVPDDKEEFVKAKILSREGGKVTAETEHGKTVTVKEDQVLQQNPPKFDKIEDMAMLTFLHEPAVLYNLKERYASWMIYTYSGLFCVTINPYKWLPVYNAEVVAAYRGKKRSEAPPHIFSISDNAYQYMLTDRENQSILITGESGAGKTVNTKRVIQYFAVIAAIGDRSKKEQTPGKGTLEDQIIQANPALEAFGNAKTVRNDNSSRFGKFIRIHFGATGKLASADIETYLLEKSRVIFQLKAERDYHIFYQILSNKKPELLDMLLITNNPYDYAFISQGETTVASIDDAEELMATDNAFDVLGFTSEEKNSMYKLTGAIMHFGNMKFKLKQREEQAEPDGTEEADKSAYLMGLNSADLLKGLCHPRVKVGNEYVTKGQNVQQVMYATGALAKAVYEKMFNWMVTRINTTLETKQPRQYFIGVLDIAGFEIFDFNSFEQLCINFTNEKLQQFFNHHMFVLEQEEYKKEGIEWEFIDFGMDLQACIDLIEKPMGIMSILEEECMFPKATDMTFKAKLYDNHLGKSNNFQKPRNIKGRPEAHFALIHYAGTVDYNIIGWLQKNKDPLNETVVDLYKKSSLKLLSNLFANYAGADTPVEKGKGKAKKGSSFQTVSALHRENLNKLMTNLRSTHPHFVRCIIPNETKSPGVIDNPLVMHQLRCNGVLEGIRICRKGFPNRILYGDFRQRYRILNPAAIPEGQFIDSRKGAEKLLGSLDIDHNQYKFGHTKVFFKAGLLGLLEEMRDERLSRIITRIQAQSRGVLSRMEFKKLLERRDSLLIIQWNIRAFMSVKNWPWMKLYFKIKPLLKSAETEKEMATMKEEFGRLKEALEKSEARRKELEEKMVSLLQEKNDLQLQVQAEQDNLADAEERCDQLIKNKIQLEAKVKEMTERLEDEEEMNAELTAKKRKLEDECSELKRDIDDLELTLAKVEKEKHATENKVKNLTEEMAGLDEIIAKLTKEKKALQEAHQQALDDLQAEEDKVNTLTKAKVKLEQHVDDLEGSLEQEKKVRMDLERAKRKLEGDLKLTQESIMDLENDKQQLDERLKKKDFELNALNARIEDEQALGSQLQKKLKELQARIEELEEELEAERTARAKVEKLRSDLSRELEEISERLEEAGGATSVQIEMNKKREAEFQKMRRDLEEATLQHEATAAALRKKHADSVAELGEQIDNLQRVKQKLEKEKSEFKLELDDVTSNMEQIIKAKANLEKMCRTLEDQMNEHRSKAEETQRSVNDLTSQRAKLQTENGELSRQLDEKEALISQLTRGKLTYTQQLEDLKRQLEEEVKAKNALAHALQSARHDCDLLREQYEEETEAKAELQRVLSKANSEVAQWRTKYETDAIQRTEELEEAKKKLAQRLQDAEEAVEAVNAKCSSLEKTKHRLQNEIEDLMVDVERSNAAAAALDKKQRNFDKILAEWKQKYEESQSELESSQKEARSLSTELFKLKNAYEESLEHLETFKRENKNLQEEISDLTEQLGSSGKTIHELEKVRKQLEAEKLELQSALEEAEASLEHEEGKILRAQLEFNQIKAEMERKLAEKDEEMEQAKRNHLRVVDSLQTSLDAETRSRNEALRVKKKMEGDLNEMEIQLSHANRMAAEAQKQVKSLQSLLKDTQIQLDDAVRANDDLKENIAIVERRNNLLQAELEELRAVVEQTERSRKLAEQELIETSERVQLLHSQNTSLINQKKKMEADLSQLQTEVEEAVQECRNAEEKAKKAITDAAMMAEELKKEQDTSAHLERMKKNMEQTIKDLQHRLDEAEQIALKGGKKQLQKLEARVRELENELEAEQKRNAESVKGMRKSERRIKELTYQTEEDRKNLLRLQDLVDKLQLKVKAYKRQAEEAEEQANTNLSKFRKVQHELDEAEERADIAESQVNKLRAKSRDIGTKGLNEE

SMILES | Ventricular EC25 ([1]; Y75 value (no ‡ mark)) | Skeletal EC25 ([2]; Y75 value (no ‡ mark)) | Atrial EC25 ([3]; Y75 value (no ‡ mark)) | Ventricular EC25 ([1]; Y75 value) | Skeletal EC25 ([2]; Y75 value) | Atrial EC25 [3, 4] | Skeletal EC25 [2, 5] | Ventricular EC25 [1, 5]
COc1ccc2[nH]c(=O)c(C(C)C(=O)N[C@@H](C)c3ccc(F)cc3F)cc2c1Cl (stereo partly drawn) [compound 87] | 100.00 µM | 100.00 µM | 100.00 µM | – | – | – | – | –
Cc1c(CC(=O)N[C@H](CO)c2ccc(C#N)cc2F)c(=O)[nH]c2cnnc(C#N)c12 [compound 175] | – | – | – | 100.00 µM | 100.00 µM | 100.00 µM | – | –
Cc1nccc2[nH]c(=O)c(CC(=O)N[C@@H](c3ccc(F)cc3F)C(C)(C)O)c(C)c12 (single isomer, unassigned) [compound 271] | – | – | – | 100.00 µM | 100.00 µM | 100.00 µM | – | –
Cc1c(CC(=O)N[C@H](c2ccc(F)cc2F)C(C)(C)O)c(=O)[nH]c2ccnc(C#N)c12 (single isomer, unassigned) [compound 280] | – | – | – | 100.00 µM | 24.76 µM | 100.00 µM | – | –
Cc1c(CC(=O)N[C@@H](C)c2ncc(C#N)cc2F)c(=O)[nH]c2ccc(O)nc12 [compound 166] | – | – | – | 100.00 µM | 3.22 µM | 1.91 µM | – | –
Cc1nc(C#N)cnc1[C@@H](C)NC(=O)Cc1cc2cc(F)c(F)cc2[nH]c1=O (single isomer, unassigned) [compound 5] | 4.13 µM | 3.60 µM | 1.45 µM | – | – | – | – | –
Cc1c(CC(=O)N[C@@H](CO)c2ccc(F)cc2F)c(=O)[nH]c2ccc(C(F)(F)F)nc12 [compound 217] | – | – | – | 6.79 µM | 0.71 µM | 0.36 µM | – | –
Cc1c(CC(=O)N[C@@H](CO)c2ccc(F)cc2F)c(=O)[nH]c2ccnc(C#N)c12 [compound 230] | – | – | – | 0.96 µM | 0.02 µM | 0.11 µM | – | –
Cc1c(CC(=O)N[C@H](C)c2ccc(C#N)cc2F)c(=O)[nH]c2ccc(F)c(F)c12 [compound 65] | 0.22 µM | 0.02 µM | 0.23 µM | – | – | – | – | –
Cc1c(CC(=O)N[C@@H](C)c2ccc(F)cc2F)c(=O)[nH]c2ccc(F)c(Cl)c12 [compound 85] | 0.07 µM | 0.02 µM | 0.03 µM | – | – | – | – | –
C[C@H](NC(=O)Cc1cc2c(Cl)c(O)ccc2[nH]c1=O)c1ccc(F)cc1F [compound 91] | 100.00 µM | 3.55 µM | 1.38 µM | – | – | – | – | –
Cc1c(CC(=O)N[C@@H](CO)c2ncc(F)cc2F)c(=O)[nH]c2ccnc(C#N)c12 [compound 262] | – | – | – | 0.67 µM | 0.13 µM | 0.19 µM | – | –
Cc1nccc2[nH]c(=O)c(CC(=O)N[C@@H](C)c3ccc(F)cc3F)c(F)c12 [compound 150] | – | – | – | 0.68 µM | 0.09 µM | 0.06 µM | – | –
Cc1c(CC(=O)N[C@@H](CO)c2ncc(C#N)cc2F)c(=O)[nH]c2cnnc(C#N)c12 [compound 164] | – | – | – | 22.06 µM | 1.12 µM | 2.51 µM | – | –
Cc1c(CC(=O)N[C@H](CO)c2ccc(F)cc2F)c(=O)[nH]c2ccc(C(F)(F)F)nc12 [compound 216] | – | – | – | 100.00 µM | 100.00 µM | 100.00 µM | – | –

Next, values leading:

Ventricular EC25 ([1]; Y75 value (no ‡ mark)) | Skeletal EC25 ([2]; Y75 value (no ‡ mark)) | Atrial EC25 ([3]; Y75 value (no ‡ mark)) | Ventricular EC25 ([1]; Y75 value) | Skeletal EC25 ([2]; Y75 value) | Atrial EC25 [3, 4] | Skeletal EC25 [2, 5] | Ventricular EC25 [1, 5] | SMILES
42.07 µM | 100.00 µM | 6.41 µM | – | – | – | – | – | Cc1cc(C#N)ccc1[C@H](C)NC(=O)Cc1c(O)c2cc(F)c(F)cc2[nH]c1=O [compound 1089]
0.89 µM | 0.49 µM | 0.51 µM | – | – | – | – | – | Cc1c(C(F)(F)C(=O)N[C@@H](C)c2cnc(C#N)cn2)c(=O)[nH]c2ccc(F)cc12 (single isomer, unassigned) [compound 2564]
– | – | – | 11.59 µM | 7.59 µM | 1.57 µM | – | – | Cc1nc(C#N)cnc1[C@@H](C)NC(=O)Cc1c(C)c2c(C)nccc2[nH]c1=O [compound 491]
11.94 µM | 100.00 µM | 5.29 µM | – | – | – | – | – | Cc1c(CC(=O)N[C@@H](C)c2ncc(C#N)cn2)c(=O)[nH]c2ccc(F)cc12 [compound 1071]
– | – | – | 100.00 µM | 9.12 µM | 8.79 µM | – | – | C[C@@H](NC(=O)Cc1c(Cl)c2cnccc2[nH]c1=O)c1ccc(C#N)cn1 [compound 453]
– | – | – | 2.83 µM | 0.04 µM | 0.36 µM | – | – | Cc1c(C(C)C(=O)N[C@@H](C)c2ccc(F)cc2F)c(=O)[nH]c2ccnc(C#N)c12 (stereo partly drawn) [compound 363]
– | – | – | 12.58 µM | 0.13 µM | 2.22 µM | – | – | CCOc1nccc2[nH]c(=O)c([C@H](C)C(=O)N[C@@H](C)c3ccc(F)cc3F)c(C(F)(F)F)c12 (single isomer, unassigned) [compound 415]
– | – | – | 0.53 µM | 0.03 µM | 0.27 µM | – | – | C[C@H](NC(=O)Cc1cc2c(F)nccc2[nH]c1=O)c1ccc(F)cc1F [compound 394]
100.00 µM | – | 30.59 µM | – | – | – | 77.37‡ μM | – | C[C@@H](NC(=O)C1(c2cc3cc(F)ccc3[nH]c2=O)CC1)c1cc(C#N)ccn1 (single isomer, unassigned) [compound 2536]
100.00 µM | 20.88 µM | 0.44 µM | – | – | – | – | – | N#Cc1cc(F)c2c(c1)OC[C@H]2NC(=O)C1(c2cc3c(F)c(F)ccc3[nH]c2=O)CC1 (single isomer, unassigned) [compound 4821]
– | – | – | 100.00 µM | 100.00 µM | 100.00 µM | – | – | Cc1nccc2[nH]c(=O)c(CC(=O)N[C@H](C)c3cccnc3)c(C)c12 (single isomer, unassigned) [compound 322]
– | – | 100.00 µM | – | – | – | 51.07‡ μM | 85.38‡ μM | C[C@H](NC(=O)C1(c2cc3cc(F)ccc3[nH]c2=O)CC1)c1cccc(C#N)n1 (single isomer, unassigned) [compound 2535]
– | – | – | 7.29 µM | 0.17 µM | 0.65 µM | – | – | Cc1c(CC(=O)N[C@@H](C)c2ccc(F)cc2F)c(=O)[nH]c2ccncc12 [compound 448]
– | – | – | 2.34 µM | 0.19 µM | 0.11 µM | – | – | Cc1ccc2[nH]c(=O)c(CC(=O)N[C@@H](C)c3ccc(F)cc3F)c(C)c2n1 [compound 420]
– | – | – | 100.00 µM | 2.54 µM | 28.00 µM | – | – | Cc1nccc2[nH]c(=O)c(CC(=O)N[C@H]3COc4cc(F)cc(F)c43)c(C)c12 (single isomer, unassigned) [compound 289]
– | – | – | 3.68 µM | 0.03 µM | 1.29 µM | – | – | C[C@H](NC(=O)[C@@H](C)c1cc2c(C#N)nccc2[nH]c1=O)c1ccc(F)cc1F (single isomer, unassigned) [compound 361]
– | – | – | 18.33 µM | 0.30 µM | 0.91 µM | – | – | Cc1nccc2[nH]c(=O)c([C@@H](C)C(=O)N[C@@H](C)c3ccc(F)cc3F)c(C)c12 (single isomer, unassigned) [compound 399]
– | – | – | 100.00 µM | 100.00 µM | 100.00 µM | – | – | Cc1nccc2[nH]c(=O)c(CC(=O)N[C@H](C)c3ccc(O)cc3)c(C)c12 (single isomer, unassigned) [compound 328]
